Columns and labels:
Rattus norvegicus [1] = test: Distribution in lungs of estrogen-primed immature rats after 1 hour iv administration (120 microCi); settings: in vivo
Rattus norvegicus [2] = test: Distribution in uterus/blood of estrogen-primed immature blocked rats after 1 hour iv administration (~/= 17 microg); settings: other tissue
Rattus norvegicus [3] = test: Distribution in kidney of estrogen-primed immature rats after 1 hour iv administration (120 microCi); settings: in vivo
Rattus norvegicus [4] = test: Distribution in lungs of estrogen-primed immature rats after 3 hour iv administration (120 micro Ci); settings: in vivo
Rattus norvegicus [5] = test: Distribution in lungs of estrogen-primed immature rats after 1 hour iv administration (13 microCi); settings: in vivo
Rattus norvegicus [6] = test: Distribution in uterus of in estrogen-primed immature rats after 1 hour iv administration (13 microCi); settings: in vivo
Rattus norvegicus [7] = test: Distribution in ovaries of estrogen-primed immature rats after 1 hour iv administration (120 microCi); settings: in vivo
Rattus norvegicus [8] = test: Distribution in fat of iestrogen-primed immature blocked rats after 1 hour iv administration (~/= 17 microg); settings: in vivo
Rattus norvegicus [9] = test: Distribution in fat of iestrogen-primed immature rats after 1 hour iv administration (13 microCi); settings: in vivo
Rattus norvegicus [10] = test: Distribution in brain of estrogen-primed immature blocked rats after 1 hour iv administration (~/= 17 microg); settings: in vivo
Rattus norvegicus [11] = test: Distribution in brain of estrogen-primed immature rats after 1 hour iv administration (13 microCi); settings: in vivo
Rattus norvegicus [12] = test: Distribution in kidney of estrogen-primed immature rats after 3 hour iv administration (120 micro Ci); settings: in vivo
Rattus norvegicus [13] = test: Distribution in uterus/blood of in estrogen-primed immature rats after 1 hour iv administration (120 microCi); settings: other tissue
Rattus norvegicus [14] = test: Distribution in muscle of iestrogen-primed immature rats after 3 hour iv administration (120 micro Ci); settings: in vivo
Rattus norvegicus [15] = test: Distribution in muscle of iestrogen-primed immature rats after 1 hour iv administration (120 microCi); settings: in vivo
Rattus norvegicus [16] = test: Distribution in bone of estrogen-primed immature rats after 3 hour iv administration (120 micro Ci); settings: in vivo
Rattus norvegicus [17] = test: Distribution in uterus of in estrogen-primed immature rats after 3 hour iv administration; settings: in vivo
Rattus norvegicus [18] = test: Distribution in muscle of iestrogen-primed immature rats after 1 hour iv administration (13 microCi); settings: in vivo
Rattus norvegicus [19] = test: Distribution in blood of estrogen-primed immature rats after 1 hour iv administration (13 microCi); settings: in vivo
Rattus norvegicus [20] = test: Distribution in blood of estrogen-primed immature rats after 3 hour iv administration (120 micro Ci); settings: in vivo
Rattus norvegicus [21] = test: Distribution in liver of estrogen-primed immature rats after 1 hour iv administration (13 microCi); settings: in vivo
Rattus norvegicus [22] = test: Distribution in kidney of estrogen-primed immature blocked rats after 1 hour iv administration (~/= 17 microg); settings: in vivo
Rattus norvegicus [23] = test: Distribution in blood of estrogen-primed immature rats after 1 hour iv administration (120 microCi); settings: in vivo
Rattus norvegicus [24] = test: Distribution in bone of iestrogen-primed immature rats after 1 hour iv administration (120 microCi); settings: in vivo
Rattus norvegicus [25] = test: Distribution in uterus/blood of estrogen-primed immature rats after 3 hour iv administration (120 micro Ci); settings: in vivo
Rattus norvegicus [26] = test: Distribution in uterus/muscle of in estrogen-primed immature rats after 1 hour iv administration (13 microCi); settings: in vivo
Rattus norvegicus [27] = test: Distribution in liver of estrogen-primed immature blocked rats after 1 hour iv administration (~/= 17 microg); settings: in vivo
Rattus norvegicus [28] = test: Distribution in uterus/blood of in estrogen-primed immature rats after 1 hour iv administration (13 microCi); settings: other tissue
Rattus norvegicus [29] = test: Distribution in ovaries of estrogen-primed immature rats after 1 hour iv administration (13 microCi); settings: in vivo
Rattus norvegicus [30] = test: Distribution in brain of estrogen-primed immature rats after 3 hour iv administration (120 micro Ci); settings: in vivo
Rattus norvegicus [31] = test: Distribution in ovaries of estrogen-primed immature blocked rats after 1 hour iv administration (~/= 17 microg); settings: in vivo
Rattus norvegicus [32] = test: Distribution in uterus of estrogen-primed immature blocked rats after 1 hour iv administration (~/= 17 microg); settings: in vivo
Rattus norvegicus [33] = test: Distribution in lungs of estrogen-primed immature blocked rats after 1 hour iv administration (~/= 17 microg); settings: in vivo
Rattus norvegicus [34] = test: Distribution in uterus of estrogen-primed immature rats after 1 hour iv administration (120 microCi); settings: in vivo
Rattus norvegicus [35] = test: Distribution in brain of estrogen-primed immature rats after 1 hour iv administration (120 microCi); settings: in vivo
Rattus norvegicus [36] = test: Distribution in kidney of estrogen-primed immature rats after 1 hour iv administration (13 microCi); settings: in vivo
Rattus norvegicus [37] = test: Distribution in blood of estrogen-primed immature blocked rats after 1 hour iv administration (~/= 17 microg); settings: in vivo
Rattus norvegicus [38] = test: Distribution in liver of estrogen-primed immature rats after 3 hour iv administration (120 micro Ci); settings: in vivo
Rattus norvegicus [39] = test: Distribution in liver of estrogen-primed immature rats after 1 hour iv administration (120 microCi); settings: in vivo
Rattus norvegicus [40] = test: Distribution in ovaries of estrogen-primed immature rats after 3 hour iv administration (120 micro Ci); settings: in vivo
Rattus norvegicus [41] = test: Distribution in uterus/muscle of estrogen-primed immature blocked rats after 1 hour iv administration (~/= 17 microg); settings: in vivo
Rattus norvegicus [42] = test: Distribution in fat of iestrogen-primed immature rats after 1 hour iv administration; settings: in vivo
Rattus norvegicus [43] = test: Distribution in bone of iestrogen-primed immature blocked rats after 1 hour iv administration (~/= 17 microg); settings: in vivo
Rattus norvegicus [44] = test: Distribution in muscle of iestrogen-primed immature blocked rats after 1 hour iv administration (~/= 17 microg); settings: in vivo
Rattus norvegicus [45] = test: Distribution in uterus/muscle of estrogen-primed immature rats after 3 hour iv administration (120 micro Ci); settings: in vivo
Rattus norvegicus [46] = test: Distribution in bone of iestrogen-primed immature rats after 1 hour iv administration (13 microCi); settings: in vivo
Rattus norvegicus [47] = test: Distribution in fat of estrogen-primed immature rats after 3 hour iv administration (120 micro Ci); settings: in vivo
Rattus norvegicus [48] = test: Distribution in uterus/muscle of in estrogen-primed immature rats after 1 hour iv administration (120 microCi); settings: in vivo

CC[C@@H]1C[C@H]2[C@@H]3CCC4=CC(=O)CC[C@@H]4[C@H]3CC[C@]2(C)[C@H]1C(=O)C[18F]
Distribution (Rattus norvegicus [1]): 0.47% | uterus/blood ratio (Rattus norvegicus [2]): 2.53 | Distribution (Rattus norvegicus [3]): 1.05% | Distribution (Rattus norvegicus [4]): 0.12% | Distribution (Rattus norvegicus [5]): 0.57% | Distribution (Rattus norvegicus [6]): 4.03% | Distribution (Rattus norvegicus [7]): 2.86% | Distribution (Rattus norvegicus [8]): 2.9% | Distribution (Rattus norvegicus [9]): 4.13% | Distribution (Rattus norvegicus [10]): 0.32% | Distribution (Rattus norvegicus [11]): 0.48% | Distribution (Rattus norvegicus [12]): 0.33% | Distribution (Rattus norvegicus [13]): 26.26% | Distribution (Rattus norvegicus [14]): 0.12% | Distribution (Rattus norvegicus [15]): 0.42% | Distribution (Rattus norvegicus [16]): 5.55% | Distribution (Rattus norvegicus [17]): 4.63% | Distribution (Rattus norvegicus [18]): 0.39% | Distribution (Rattus norvegicus [19]): 0.19% | Distribution (Rattus norvegicus [20]): 0.07% | Distribution (Rattus norvegicus [21]): 2.59% | Distribution (Rattus norvegicus [22]): 0.58% | Distribution (Rattus norvegicus [23]): 0.25% | Distribution (Rattus norvegicus [24]): 3.18% | uterus/blood ratio (Rattus norvegicus [25]): 71.2 | Distribution (Rattus norvegicus [26]): 11.06% | Distribution (Rattus norvegicus [27]): 2.09% | Distribution (Rattus norvegicus [28]): 21.18% | Distribution (Rattus norvegicus [29]): 2.37% | Distribution (Rattus norvegicus [30]): 0.14% | Distribution (Rattus norvegicus [31]): 1% | Distribution (Rattus norvegicus [32]): 0.38% | Distribution (Rattus norvegicus [33]): 0.3% | Distribution (Rattus norvegicus [34]): 6.43% | Distribution (Rattus norvegicus [35]): 0.63% | Distribution (Rattus norvegicus [36]): 0.86% | Distribution (Rattus norvegicus [37]): 0.15% | Distribution (Rattus norvegicus [38]): 1.01% | Distribution (Rattus norvegicus [39]): 3.34% | Distribution (Rattus norvegicus [40]): 1.72% | Distribution (Rattus norvegicus [41]): 1.59% | Distribution (Rattus norvegicus [42]): 3.56% | Distribution (Rattus norvegicus [43]): 3.09% | Distribution (Rattus norvegicus [44]): 0.25% | Distribution (Rattus norvegicus [45]): 41.16% | Distribution (Rattus norvegicus [46]): 3.06% | Distribution (Rattus norvegicus [47]): 2.78% | Distribution (Rattus norvegicus [48]): 15.98%

Reference: ChEMBL document CHEMBL1124151, “21-[18F]fluoro-16 alpha-ethyl-19-norprogesterone: synthesis and target tissue selective uptake of a progestin receptor based radiotracer for positron emission tomography” (J Med Chem, 1988)
